# Where a name gives a salt, the structure may show the parent alone. Read-outs that look alike come from different tables or passages of the source.
# Assays:
# [1] = system: Hafnia alvei 025; assay: Ex.4 colony coloration, 5-bromo-3-indolyl nonanoate, DMSO/Tween 20, MacConkey; type: cell-based; parameters: key: —: absence of colour or intensity; settings: 8 ml/l Tergitol 4
# [2] = system: Salmonella typhimurium 010; assay: Ex.1 colony coloration, 5-bromo-3-indolyl nonanoate, DMSO/Tween 20, MacConkey; type: cell-based
# Protocol: The esterase substrate tested is 5-bromo-3-indolyl nonanoate. A 40 g/l stock solution of substrate is prepared in a mixture of 40% dimethyl sulfoxide and 60% Tween 20. A sufficient volume is added to a supercooled MacConkey medium (without neutral red) to give a substrate concentration of 500 mg/l.
# [3] = system: Acinetobacter calcoaceticus 034; assay: Ex.2 colony coloration, 5-bromo-3-indolyl nonanoate, methanol/bile salts, MacConkey; type: cell-based; as to intensity of coloration: key: 0: no activity; 0.1: trace of coloration; 0.5: very pale coloration; 1: distinct coloration of low intensity; 2: clear coloration of medium intensity; 3: intense coloration; 4: very intense coloration
# [4] = system: Staphylococcus aureus 276; assay: Ex.3 colony coloration, 5-bromo-4-chloro-3-indolyl nonanoate 250 mg/l, DMSO/Tween 20; type: cell-based; also: key: 0: no activity; 0.1: trace of coloration; 0.5: very pale coloration; 1: distinct coloration of low intensity; 2: clear coloration of medium intensity; 3: intense coloration; 4: very intense coloration
# [5] = system: Salmonella arizonae 018; assay: Ex.4 colony coloration, 5-bromo-3-indolyl nonanoate, DMSO/Tween 20, MacConkey; type: cell-based; settings: 8 ml/l Tergitol 4
# [6] = system: Listeria innocua 029; assay: Ex.3 colony coloration, 5-bromo-4-chloro-3-indolyl nonanoate 250 mg/l, DMSO/Tween 20; type: cell-based; also: key: 0: no activity; 0.1: trace of coloration; 0.5: very pale coloration; 1: distinct coloration of low intensity; 2: clear coloration of medium intensity; 3: intense coloration; 4: very intense coloration
# [7] = system: Salmonella paratyphi A 006
# Protocol: (§1) The esterase substrate tested is 5-bromo-3-indolyl nonanoate. A 25 g/l stock solution of substrate is prepared in methanol to which 5 g/l of bile salts have been added. A sufficient volume is added to a supercooled MacConkey medium (without neutral red) to give a substrate concentration of 500 mg/l.
# (§2) Microorganisms originating from the Applicant's collection were inoculated onto this medium from a 0.5 McFarland suspension by isolation in three quadrants. The dishes were incubated at 37° C. for 48 hours. The colonies formed were examined visually after 24 and 48 hours of incubation. The coloration of these colonies and the intensity of this coloration were noted.
# (§3) Note: In the above Examples, the numbers following the strains correspond to the number of each strain referenced in the Applicant's collection. The intensity of coloration corresponds to an arbitrary scale defined as follows: […]
# [8] = system: Salmonella spp. 017
# Protocol: as §1, §2, §3
# [9] = system: Salmonella enteritidis 006; assay: Ex.4 colony coloration, 5-bromo-3-indolyl nonanoate, DMSO/Tween 20, MacConkey; type: cell-based; settings: 8 ml/l Tergitol 4
# [10] = system: Pseudomonas aeruginosa 165; assay: Ex.3 colony coloration, 5-bromo-4-chloro-3-indolyl nonanoate 250 mg/l, DMSO/Tween 20; type: cell-based; also: key: 0: no activity; 0.1: trace of coloration; 0.5: very pale coloration; 1: distinct coloration of low intensity; 2: clear coloration of medium intensity; 3: intense coloration; 4: very intense coloration
# [11] = system: Salmonella spp. 017; remark: listed apart in the source
# Protocol: The esterase substrate tested is 5-bromo-4-chloro-3-indolyl nonanoate. A 40 g/l stock solution of substrate is prepared in a mixture of 40% dimethyl sulfoxide and 60% Tween 20. A sufficient volume is added to a supercooled MacConkey medium (without neutral red) to give a substrate concentration of 250 mg/l.
# as §2, §3
# [12] = system: Enterobacter cloacae 086; assay: Ex.2 colony coloration, 5-bromo-3-indolyl nonanoate, methanol/bile salts, MacConkey; type: cell-based
compound,measurement,setting,value
"CCCCC(CC)CCC(CC(C)C)OS(=O)(=O)O (centres unmarked) [Tergitol 4, 7-ethyl-2-methyl-4-undecanoate hydrogensulfate or its sodium salt]",color,[1]; 24 h,—
same,color,[1]; 48 h,—
same,color,"[2]; 2 ml/l, 24 h",gray
same,intensity of coloration,"[2]; 2 ml/l, 24 h",2
same,color,"[2]; 2 ml/l, 48 h",gray
same,intensity of coloration,"[2]; 2 ml/l, 48 h",2.5
same,color,"[2]; 4 ml/l, 24 h",gray
same,intensity of coloration,"[2]; 4 ml/l, 24 h",3
same,color,"[2]; 4 ml/l, 48 h",gray
same,intensity of coloration,"[2]; 4 ml/l, 48 h",3
same,color,"[2]; 8 ml/l, 24 h",gray
same,intensity of coloration,"[2]; 8 ml/l, 24 h",3.5
same,color,"[2]; 8 ml/l, 48 h",gray
same,intensity of coloration,"[2]; 8 ml/l, 48 h",3.5
same,color,"[2]; 16 ml/l, 24 h",gray
same,intensity of coloration,"[2]; 16 ml/l, 24 h",3.5
same,color,"[2]; 16 ml/l, 48 h",gray
same,intensity of coloration,"[2]; 16 ml/l, 48 h",4
same,color,"[3]; 2 ml/l, 24 h",gray
same,intensity of coloration,"[3]; 2 ml/l, 24 h",2
same,color,"[3]; 2 ml/l, 48 h",gray
same,intensity of coloration,"[3]; 2 ml/l, 48 h",3
same,color,"[3]; 4 ml/l, 24 h",gray
same,intensity of coloration,"[3]; 4 ml/l, 24 h",3
same,color,"[3]; 4 ml/l, 48 h",gray
same,intensity of coloration,"[3]; 4 ml/l, 48 h",3
same,color,"[3]; 8 ml/l, 24 h",gray
same,intensity of coloration,"[3]; 8 ml/l, 24 h",3
same,color,"[3]; 8 ml/l, 48 h",gray
same,intensity of coloration,"[3]; 8 ml/l, 48 h",4
same,color,"[3]; 16 ml/l, 24 h",gray
same,intensity of coloration,"[3]; 16 ml/l, 24 h",0.5
same,color,"[3]; 16 ml/l, 48 h",gray
same,intensity of coloration,"[3]; 16 ml/l, 48 h",0.5
same,intensity of coloration,"[4]; 0.001 ml/l, 24 h",2
same,intensity of coloration,"[4]; 0.001 ml/l, 48 h",2
same,intensity of coloration,"[4]; 0.01 ml/l, 24 h",2
same,intensity of coloration,"[4]; 0.01 ml/l, 48 h",3
same,intensity of coloration,"[4]; 0.1 ml/l, 24 h",3
same,intensity of coloration,"[4]; 0.1 ml/l, 48 h",3
same,intensity of coloration,"[4]; 1 ml/l (1st col), 24 h",2
same,intensity of coloration,"[4]; 1 ml/l (1st col), 48 h",3
same,intensity of coloration,"[4]; 1 ml/l (2nd col), 24 h",2
same,intensity of coloration,"[4]; 1 ml/l (2nd col), 48 h",3
same,color,[5]; 24 h,gray
same,intensity of coloration,[5]; 24 h,3.5
same,color,[5]; 48 h,gray
same,intensity of coloration,[5]; 48 h,3.5
same,intensity of coloration,"[6]; 0.001 ml/l, 24 h",0.1
same,intensity of coloration,"[6]; 0.001 ml/l, 48 h",2
same,intensity of coloration,"[6]; 0.01 ml/l, 24 h",0.1
same,intensity of coloration,"[6]; 0.01 ml/l, 48 h",2
same,intensity of coloration,"[6]; 0.1 ml/l, 24 h",0.1
same,intensity of coloration,"[6]; 0.1 ml/l, 48 h",2
same,intensity of coloration,"[6]; 1 ml/l (1st col), 24 h",0.1
same,intensity of coloration,"[6]; 1 ml/l (1st col), 48 h",2
same,intensity of coloration,"[6]; 1 ml/l (2nd col), 24 h",0.1
same,intensity of coloration,"[6]; 1 ml/l (2nd col), 48 h",2
same,color,"[7]; 2 ml/l, 24 h",gray
same,intensity of coloration,"[7]; 2 ml/l, 24 h",0.1
same,color,"[7]; 2 ml/l, 48 h",gray
same,intensity of coloration,"[7]; 2 ml/l, 48 h",0.5
same,color,"[7]; 4 ml/l, 24 h",gray
same,intensity of coloration,"[7]; 4 ml/l, 24 h",0.1
same,color,"[7]; 4 ml/l, 48 h",gray
same,intensity of coloration,"[7]; 4 ml/l, 48 h",1
same,color,"[8]; 2 ml/l, 24 h",gray
same,intensity of coloration,"[8]; 2 ml/l, 24 h",1
same,color,"[8]; 2 ml/l, 48 h",gray
same,intensity of coloration,"[8]; 2 ml/l, 48 h",1.5
same,color,"[8]; 4 ml/l, 24 h",gray
same,intensity of coloration,"[8]; 4 ml/l, 24 h",1
same,color,"[8]; 4 ml/l, 48 h",gray
same,intensity of coloration,"[8]; 4 ml/l, 48 h",1.5
same,color,"[8]; 8 ml/l, 24 h",gray
same,intensity of coloration,"[8]; 8 ml/l, 24 h",1
same,color,"[8]; 8 ml/l, 48 h",gray
same,intensity of coloration,"[8]; 8 ml/l, 48 h",1.5
same,color,"[8]; 16 ml/l, 24 h",gray
same,intensity of coloration,"[8]; 16 ml/l, 24 h",1
same,color,"[8]; 16 ml/l, 48 h",gray
same,intensity of coloration,"[8]; 16 ml/l, 48 h",1.5
same,color,[9]; 24 h,gray
same,intensity of coloration,[9]; 24 h,3
same,color,[9]; 48 h,gray
same,intensity of coloration,[9]; 48 h,3
same,intensity of coloration,"[10]; 0.001 ml/l, 24 h",0.1
same,intensity of coloration,"[10]; 0.001 ml/l, 48 h",0.5
same,intensity of coloration,"[10]; 0.01 ml/l, 24 h",0.5
same,intensity of coloration,"[10]; 0.01 ml/l, 48 h",1
same,intensity of coloration,"[10]; 0.1 ml/l, 24 h",0.1
same,intensity of coloration,"[10]; 0.1 ml/l, 48 h",0.5
same,intensity of coloration,"[10]; 1 ml/l (1st col), 24 h",0.5
same,intensity of coloration,"[10]; 1 ml/l (1st col), 48 h",0.5
same,intensity of coloration,"[10]; 1 ml/l (2nd col), 24 h",0.5
same,intensity of coloration,"[10]; 1 ml/l (2nd col), 48 h",1
same,intensity of coloration,"[11]; 0.001 ml/l, 24 h",2
same,intensity of coloration,"[11]; 0.001 ml/l, 48 h",3
same,intensity of coloration,"[11]; 0.01 ml/l, 24 h",2
same,intensity of coloration,"[11]; 0.01 ml/l, 48 h",3
same,intensity of coloration,"[11]; 0.1 ml/l, 24 h",2
same,intensity of coloration,"[11]; 0.1 ml/l, 48 h",3
same,intensity of coloration,"[11]; 1 ml/l (1st col), 24 h",2
same,intensity of coloration,"[11]; 1 ml/l (1st col), 48 h",3
same,intensity of coloration,"[11]; 1 ml/l (2nd col), 24 h",2
same,intensity of coloration,"[11]; 1 ml/l (2nd col), 48 h",3
same,color,"[12]; 2 ml/l, 24 h",gray
same,intensity of coloration,"[12]; 2 ml/l, 24 h",0.5
same,color,"[12]; 2 ml/l, 48 h",gray
same,intensity of coloration,"[12]; 2 ml/l, 48 h",2
same,color,"[12]; 4 ml/l, 24 h",gray
same,intensity of coloration,"[12]; 4 ml/l, 24 h",1
same,color,"[12]; 4 ml/l, 48 h",gray
same,intensity of coloration,"[12]; 4 ml/l, 48 h",3
same,color,"[12]; 8 ml/l, 24 h",gray
same,intensity of coloration,"[12]; 8 ml/l, 24 h",0.5
same,color,"[12]; 8 ml/l, 48 h",gray
same,intensity of coloration,"[12]; 8 ml/l, 48 h",1
same,color,"[12]; 16 ml/l, 24 h",gray
same,intensity of coloration,"[12]; 16 ml/l, 24 h",0.5
same,color,"[12]; 16 ml/l, 48 h",gray
same,intensity of coloration,"[12]; 16 ml/l, 48 h",1
